Where two headings read alike, the source gives them in different places.
Target: b-Raf (V600E) (Homo sapiens (Human), UniProt P15056, V600E)
Conditions: read-out: b-Raf IC-50, AlphaScreen
[1] = 60 min pre-incubation, reaction 3 hours at room temperature
[2] = 60 min pre-incubation, 3 hours reaction

Chain of b-Raf (V600E) (P15056 whole entry V600E): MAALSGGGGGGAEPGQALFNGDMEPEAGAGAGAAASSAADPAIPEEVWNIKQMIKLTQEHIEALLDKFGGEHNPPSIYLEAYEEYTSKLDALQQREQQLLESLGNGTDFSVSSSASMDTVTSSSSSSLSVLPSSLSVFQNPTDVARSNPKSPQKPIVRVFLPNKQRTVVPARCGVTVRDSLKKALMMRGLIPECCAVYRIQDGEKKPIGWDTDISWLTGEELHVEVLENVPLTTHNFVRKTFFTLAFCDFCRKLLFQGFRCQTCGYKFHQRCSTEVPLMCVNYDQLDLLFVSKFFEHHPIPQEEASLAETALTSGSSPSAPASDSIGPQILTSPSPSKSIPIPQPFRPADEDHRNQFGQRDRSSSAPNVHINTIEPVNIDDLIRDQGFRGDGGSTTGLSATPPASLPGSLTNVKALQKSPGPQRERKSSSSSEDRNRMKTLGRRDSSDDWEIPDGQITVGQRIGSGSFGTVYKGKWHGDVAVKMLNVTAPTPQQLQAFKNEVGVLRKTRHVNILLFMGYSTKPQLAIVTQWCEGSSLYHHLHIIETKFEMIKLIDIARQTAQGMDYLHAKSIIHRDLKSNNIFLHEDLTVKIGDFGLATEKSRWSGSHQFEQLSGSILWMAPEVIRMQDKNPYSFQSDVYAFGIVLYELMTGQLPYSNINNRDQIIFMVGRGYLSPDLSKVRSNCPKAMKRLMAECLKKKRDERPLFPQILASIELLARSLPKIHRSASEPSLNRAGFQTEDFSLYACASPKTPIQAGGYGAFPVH

SMILES: Cc1ccc(NC(=O)c2cncc(C(F)(F)F)c2)cc1-c1cc(N2CCOCC2)c(=O)n(C)n1 [Example 909, N-(4-methyl-3-(1-methyl-5-morpholino-6-oxo-1,6-dihydropyridazin-3-yl)phenyl)-5-(trifluoromethyl)nicotinamide]
- IC50 [1]: 1.56 nM

SMILES: Cc1ccc(NC(=O)c2ccnc(C(C)C)c2)cc1-c1cc(N2CCOCC2)n(C)c(=O)c1 [Example 482, 2-isopropyl-N-(4-methyl-3-(1-methyl-6-morpholino-2-oxo-1,2-dihydropyridin-4-yl)phenyl)isonicotinamide]
- IC50 [2]: 0.6 nM

SMILES: Cc1ccc(NC(=O)c2ccnc(C(C)(C)C#N)c2)cc1-c1cc(N2CC3CC(C2)O3)c(=O)n(C)c1 [Example 465, N-(3-(5-(6-oxa-3-azabicyclo[3.1.1]heptan-3-yl)-1-methyl-6-oxo-1,6-dihydropyridin-3-yl)-4-methylphenyl)-2-(2-cyanopropan-2-yl)isonicotinamide]
- IC50 [2]: 100 nM

SMILES: Cc1ccc(NC(=O)c2cccc(C(F)F)c2)cc1-c1cc(N2CCOCC2)n(C)c(=O)c1 [Example 484, 3-(difluoromethyl)-N-(4-methyl-3-(1-methyl-6-morpholino-2-oxo-1,2-dihydropyridin-4-yl)phenyl)benzamide]
- IC50 [2]: 0.4 nM

SMILES: Cc1ncc(NC(=O)c2ccnc(C(C)(C)F)c2)cc1-c1cc(N2CCOCC2)c(OC(C)C)nn1 [Example 911, 2-(2-fluoropropan-2-yl)-N-(5-(6-isopropoxy-5-morpholinopyridazin-3-yl)-6-methylpyridin-3-yl)isonicotinamide]
- IC50 [1]: 3.58 nM

SMILES: COc1nnc(-c2cc(NC(=O)c3ccnc(C(C)(C)O)c3)ccc2C)cc1N1CCOCC1 [Example 556, 2-(2-hydroxypropan-2-yl)-N-(3-(6-methoxy-5-morpholinopyridazin-3-yl)-4-methylphenyl)isonicotinamide]
- IC50 [2]: 3.9 nM

SMILES: Cc1ccc(NC(=O)c2cnnc(C3CC3)c2)cc1-c1cnc(OC2CCOCC2)c(N2CCOCC2)c1 [Example 276, 6-cyclopropyl-N-(4-methyl-3-(5-morpholino-6-((tetrahydro-2H-pyran-4-yl)oxy)pyridin-3-yl)phenyl)pyridazine-4-carboxamide]
- IC50 (Table 2, 3 hours reaction): 0.4 nM

SMILES: Cc1ccc(NC(=O)c2cnnc(C(F)(F)F)c2)cc1-c1cc(OCCO)nc(N2CCOCC2)c1 [Example 1164, N-(3-(2-(2-hydroxyethoxy)-6-morpholinopyridin-4-yl)-4-methylphenyl)-6-(trifluoromethyl)pyridazine-4-carboxamide]
- IC50 [1]: 0.57 nM

SMILES: Cc1ccc(NC(=O)c2ccnc(C(C)(F)F)c2)cc1-c1cc(N2CCOC[C@H]2C)c(=O)n(C)n1 [Example 674, (R)-2-(1,1-difluoroethyl)-N-(4-methyl-3-(1-methyl-5-(3-methylmorpholino)-6-oxo-1,6-dihydropyridazin-3-yl)phenyl)isonicotinamide]
- IC50 [2]: 3.7 nM

SMILES: Cc1nn(C)cc1C(=O)Nc1cnc(C)c(-c2cc(N3CCOCC3)c(=O)n(C)c2)c1 [Example 374, N-(1′,2-dimethyl-5′-morpholino-6′-oxo-1′,6′-dihydro-[3,3′-bipyridin]-5-yl)-1,3-dimethyl-1H-pyrazole-4-carboxamide]
- IC50 (Table 2, 3 hours reaction): 3400 nM

SMILES: Cc1ncc(NC(=O)c2ccnc(C(F)(F)F)c2)cc1-c1cc(N2CCOCC2)nc(N2CCOCC2)c1 [Example 1120, N-(2-methyl-2′,6′-dimorpholino-[3,4′-bipyridin]-5-yl)-2-(trifluoromethyl)isonicotinamide]
- IC50 [1]: 1.63 nM

SMILES: CCOc1ncc(-c2cc(NC(=O)c3ccnc(C(F)F)c3)ccc2C)cc1N1CCOCC1 [Example 237, 2-(difluoromethyl)-N-(3-(6-ethoxy-5-morpholinopyridin-3-yl)-4-methylphenyl)isonicotinamide]
- IC50 (Table 2, 3 hours reaction): 0.4 nM

SMILES: O=C(Nc1c[nH]c(=O)c(-c2ccnc(N3CCOCC3)c2)c1)c1cccc(C(F)F)c1 [Example 1174, 3-(difluoromethyl)-N-(2′-morpholino-2-oxo-1,2-dihydro-[3,4′-bipyridin]-5-yl)benzamide]
- IC50 [1]: 25000 nM

SMILES: Cc1ncc(NC(=O)c2cccc(C(F)(F)F)c2)cc1-c1cnc(O[C@H]2CCOC2)c(N2CCOCC2)c1 [Example 310, (S)—N-(2-methyl-5′-morpholino-6′-((tetrahydrofuran-3-yl)oxy)-[3,3′-bipyridin]-5-yl)-3-(trifluoromethyl)benzamide]
- IC50 (Table 2, 3 hours reaction): 1.8 nM

SMILES: Cc1ncc(NC(=O)c2ccnc(C(C)(F)F)c2)cc1-c1cc(N2CCOCC2)c(OCC(F)F)nn1 [Example 915, N-(5-(6-(2,2-difluoroethoxy)-5-morpholinopyridazin-3-yl)-6-methylpyridin-3-yl)-2-(1,1-difluoroethyl)isonicotinamide]
- IC50 [1]: 1.11 nM

SMILES: Cc1ncc(NC(=O)c2ccnc(C3(C#N)CC3)c2)cc1-c1cnc(N(C)C)c(N2CCOCC2)c1 [Example 266, 2-(1-cyanocyclopropyl)-N-(6′-(dimethylamino)-2-methyl-5′-morpholino-[3,3′-bipyridin]-5-yl)isonicotinamide]
- IC50 (Table 2, 3 hours reaction): 1.9 nM

SMILES: CCOc1cc(-c2cc(NC(=O)c3ccnc(C(F)F)c3)cnc2C)cc(N2CCOCC2)n1 [Example 1146, 2-(difluoromethyl)-N-(2′-ethoxy-2-methyl-6′-morpholino-[3,4′-bipyridin]-5-yl)isonicotinamide]
- IC50 [1]: 1.87 nM

SMILES: Cc1ccc(NC(=O)c2ccnc(C(C)(F)F)c2)cc1-c1cc(N2CCOCC2)nc(N(C)C)n1 [Example 756, 2-(1,1-difluoroethyl)-N-(3-(2-(dimethylamino)-6-morpholinopyrimidin-4-yl)-4-methylphenyl)isonicotinamide]
- IC50 [2]: 4.2 nM

SMILES: CCOc1cccc(C(=O)Nc2cnc(C)c(-c3cc(N4CCOCC4)c(=O)n(C)c3)c2)c1 [Example 397, N-(1′,2-dimethyl-5′-morpholino-6′-oxo-1′,6′-dihydro-[3,3′-bipyridin]-5-yl)-3-ethoxybenzamide]
- IC50 (Table 2, 3 hours reaction): 10 nM

SMILES: Cc1ccc(NC(=O)c2ccnc(C3(C#N)CC3)c2)cc1-c1cc(N2CCOCC2)n(C)c(=O)c1 [Example 480, 2-(1-cyanocyclopropyl)-N-(4-methyl-3-(1-methyl-6-morpholino-2-oxo-1,2-dihydropyridin-4-yl)phenyl)isonicotinamide]
- IC50 [2]: 0.6 nM

SMILES: Cc1ccc(NC(=O)c2ccnnc2)cc1-c1ccnc(N2CCOCC2)c1 [Example 72, N-(4-methyl-3-(2-morpholinopyridin-4-yl)phenyl)pyridazine-4-carboxamide]
- IC50 (Table 2, 3 hours reaction): 600 nM

SMILES: CCNc1nc(-c2cc(NC(=O)c3cc(C(F)(F)F)c(=O)n(CC)c3)cnc2C)cc(N2CCOCC2)n1 [Example 720, 1-ethyl-N-(5-(2-(ethylamino)-6-morpholinopyrimidin-4-yl)-6-methylpyridin-3-yl)-6-oxo-5-(trifluoromethyl)-1,6-dihydropyridine-3-carboxamide]
- IC50 [2]: 23.2 nM

SMILES: Cc1ccc(NC(=O)c2ccnc(C(C)(C)C#N)c2)cc1-c1cc(N2CCOCC2(C)C)c(=O)n(C)n1 [Example 671, 2-(2-cyanopropan-2-yl)-N-(3-(5-(3,3-dimethylmorpholino)-1-methyl-6-oxo-1,6-dihydropyridazin-3-yl)-4-methylphenyl)isonicotinamide]
- IC50 [2]: 25.5 nM

SMILES: CC(F)(F)c1cc(C(=O)Nc2c[nH]c(=O)c(-c3ccnc(N4CCOCC4)c3)c2)ccn1 [Example 89, 2-(1,1-difluoroethyl)-N-(2′-morpholino-2-oxo-1,2-dihydro-[3,4′-bipyridin]-5-yl)isonicotinamide]
- IC50 (Table 2, 3 hours reaction): 25000 nM

SMILES: Cc1ncc(NC(=O)c2cccc(C(F)(F)F)c2)cc1-c1cc(N2CCOCC2)c(OC2CCOCC2)nn1 [Example 636, N-(6-methyl-5-(5-morpholino-6-((tetrahydro-2H-pyran-4-yl)oxy)pyridazin-3-yl)pyridin-3-yl)-3-(trifluoromethyl)benzamide]
- IC50 [2]: 1.3 nM

SMILES: CCOc1nnc(-c2cc(NC(=O)c3ccnc(C4(C#N)CC4)c3)ccc2C)cc1N1CCOCC1 [Example 568, 2-(1-cyanocyclopropyl)-N-(3-(6-ethoxy-5-morpholinopyridazin-3-yl)-4-methylphenyl)isonicotinamide]
- IC50 [2]: 0.7 nM

SMILES: Cc1ccc(NC(=O)c2ccnc(C3COC3)c2)cc1-c1cc(N2CCOCC2)n(C)c(=O)c1 [Example 478, N-(4-methyl-3-(1-methyl-6-morpholino-2-oxo-1,2-dihydropyridin-4-yl)phenyl)-2-(oxetan-3-yl)isonicotinamide]
- IC50 [2]: 2.5 nM

SMILES: COc1nnc(-c2cc(NC(=O)c3ccnc(C(F)(F)F)c3)ccc2C)cc1N1CCOCC1 [Example 547, N-(3-(6-methoxy-5-morpholinopyridazin-3-yl)-4-methylphenyl)-2-(trifluoromethyl)isonicotinamide]
- IC50 [2]: 1 nM

SMILES: Cc1ccc(NC(=O)c2cccc(C(F)(F)F)c2)cc1-c1cc(N2CCOCC2=O)c(=O)n(C)c1 [Example 451, N-(4-methyl-3-(1-methyl-6-oxo-5-(3-oxomorpholino)-1,6-dihydropyridin-3-yl)phenyl)-3-(trifluoromethyl)benzamide]
- IC50 [2]: 83.7 nM

SMILES: Cc1ccc(NC(=O)c2ccnc(S(C)(=O)=O)c2)cc1-c1ccnc(N2CCOCC2)c1 [Example 73, N-(4-methyl-3-(2-morpholinopyridin-4-yl)phenyl)-2-(methylsulfonyl)isonicotinamide]
- IC50 (Table 2, 3 hours reaction): 1.9 nM

SMILES: CCC(F)(F)c1cc(C(=O)Nc2cnc(C)c(-c3cnc(OC(F)F)c(N4CCOCC4)c3)c2)ccn1 [Example 983, N-(6′-(difluoromethoxy)-2-methyl-5-morpholino-[3,3′-bipyridin]-5-yl)-2-(1,1-difluoropropyl)isonicotinamide]
- IC50 [1]: 2.99 nM

SMILES: Cc1ncc(NC(=O)c2ccnc(C(C)(C)C#N)c2)cc1-c1cnc(OCCO)c(N2CCOCC2)c1 [Example 300, 2-(2-cyanopropan-2-yl)-N-(6′-(2-hydroxyethoxy)-2-methyl-5′-morpholino-[3,3′-bipyridin]-5-yl)isonicotinamide]
- IC50 (Table 2, 3 hours reaction): 14.6 nM

SMILES: Cc1ccc(C(=O)Nc2cccc(-c3nnco3)c2)cc1-c1cc(N2CCOCC2)c(=O)n(C)c1 [Example 437, N-(3-(1,3,4-oxadiazol-2-yl)phenyl)-4-methyl-3-(1-methyl-5-morpholino-6-oxo-1,6-dihydropyridin-3-yl)benzamide]
- IC50 [2]: 15.4 nM
